No end group written: not given here.
Legend:
[1] = system: human melanoma cells (MDA-MB-435S); assay: Anoikis assay, human melanoma cells; assay type: cell-based; settings: 10 nM GRP and/or 1 µM RC, 48 h, poly-HEMA, low serum, annexin V/7-AAD
Protocol: Six-well plates were coated with poly-HEMA to prevent cell attachment to the well surface. Cells were seeded in low-serum medium containing 10 nM GRP and/or 1 µM RC. Then, 48 hours after cell seeding, cells were collected and washed with ice-cold PBS twice and resuspended in annexin V binding buffer (556454, BD Biosciences) and incubated at room temperature in the dark with 7-amino-actinomycin D (7-AAD, 559925, BD Biosciences) and annexin-V for 15 min. Annexin V was coupled to FITC (556420, BD Biosciences) for the 1057 and MDA-MB-435S cell lines and to PE (556421, BD Biosciences) for the other cell lines. Cells were sorted using a FACS LSRFortessa (BD Biosciences) to determine the percentage of annexin V- and/or 7-AAD-positive cells using a 488 nm laser for annexin V-FITC and annexin V-PE and a 675 nm laser for7-AAD. All quantification was performed using Flow-Jo.

[2] = system: GRPR, Gαq/11 activation; assay: IP1 detection (HTRF IP-one Gq kit); assay type: cell-based, mouse; settings: 10 nM GRP, 30 min, 37 °C
Protocol: IP1 levels were quantified using the HTRF IP-one Gq detection kit (62IPAPEB, Revvity) following the manufacturer’s protocol. We treated 4,000 cells for 30 min at 37 °C in StimB buffer with 10 nM GRP, 1 µM RC-3095, 1 µM ICI-182,780 or DMSO. FRET signals (620 nm and 665 nm, excitation at 385 nm) were measured using a Clariostar plate reader (BMG Labtech).

[3] = system: YAP1 activation signature; assay: YAP1 activation signature (GSEA) and YAP1 score by RNA-seq, human melanoma cell lines; assay type: cell-based; settings: 4 h, 10 nM GRP
Protocol: The transcriptome, copy-number alteration, mutations and corresponding clinical data of the TCGA–SKCM (n = 473), TCGA–BRCA (n = 1,215), TCGA–STAD (n = 450), TCGA–LUSC (n = 553) and TCGA–KIRC (n = 606) datasets were retrieved from the National Cancer Institute Genomic Data Commons repository using the TCGAbiolinks R package in August 2022 (ref. [51]). The mRNA levels were calculated from RNA-sequencing read counts using RNA-Seq V2 RSEM and normalized to TPM. Expression of CDH1, CCND1, BRAF and KRAS was modelled over time using LOWESS smoothing with 1,860 points. Expression levels from acral melanoma were retrieved from GEO under accession number GSE162682. Survival analyses were carried out by separating the cohort into two groups according to gene expression. The threshold was set to 1 TPM, commonly considered to be the limit for sufficient protein expression of the transcript. The negative group was set to an expression 0.1 TPM or less to have clear separation in terms of expression (factor 10) from the positive group. […] The scoring of YAP1 activation was determined from the expression of CYR61, CTGF, TEAD4, LATS2 and CRIM1. […] The anoikis-resistance score was calculated on the basis of the expression of S100A7A, MTPN, ATP10B, S100A8, RSAD2, RENBP, CDHR1 and CD36. The ER-activation score was calculated according to the expressions of GATA4, SDK2, EGR3, IL19, GSG1L, RSPO1, PGR, IL24 and PDZK1. […]
RNA was extracted from cells and mouse tumours using the miRNeasy kit (Qiagen, 217004), according to the manufacturer’s protocol. RNA integrity (RIN) was measured using an Agilent Bioanalyser 2100 (Agilent Technologies) and an RNA nano 6000 kit (5067-1511, Agilent Technologies). […] RNA concentrations were measured using a NanoDrop (NanoDrop Technologies). […] The libraries were equimolarly pooled and subjected to qPCR quantification using the KAPA library quantification kit (Roche). […] Reads were mapped to the mm10 mouse reference genome (gencode m13 version-GRCm38.p5) or hg38 human reference genome (gencode 42 version-GRCh38.p13) using STAR[60]. […]

Substance: GRP: GRPR's natural agonist, endogenous ligand of GRPR (4011670 bachem) (VPLPAGGGTVLTKMYPRGNHWAVGHLM; not fully specified; ends and bridges not checked; UniProt P07492 24-50, looked up)
- anoikis resistance (apoptotic cells without matrix attachment), GRPR+ human cells [1]: promoted
- IP1 production, GRPR-negative cells [2]: not GRPR-negative cells
- IP1 production, GRPR-positive cells ([2]; 4,000 cells, StimB buffer, 1 µM RC-3095, 1 µM ICI-182,780 (pre-treatment)): triggered IP1 production
- GSEA YAP activation, GRP vs. Mock: NES ([3]; 501mel-GRPR, FDR <0.0001): 2.07
- GSEA YAP activation, GRP vs. Mock: NES ([3]; Dauv-1, FDR <0.0001): 2.21
- GSEA YAP activation, GRP vs. Mock: NES ([3]; MDA-MB-435S, FDR =0.0408): 1.32
